Measurements as given in patent US20240166663A1, “NOVEL PYRIMIDINE DERIVATIVE SHOWING INHIBITION EFFECT ON GROWTH OF CANCER CELLS” (ONCOBIX CO., LTD., priority 2021, published 2024).

Molecular target: EXON 20 Insertion(NPG) Ba/F3 Cell (Homo sapiens, UniProt P00533, INS772GNP, cells depend on it)
Assay: Measurement of cancer cell growth inhibitory effect (MTT assay)
Type: cell-based, Murine
Conditions: Ba/F3 cells expressing EGFR with NPG added at D770_N771, 72 hours treatment, read at 595 nm, read-out: EXON 20 Insertion(NPG) Ba/F3 Cell(IC50)
From the text: Since there is no commercially available lung cancer cell line with EGFR insertion mutation, a method of inserting 3 to 4 amino acids at each site using site direct mutagenesis in a wild type EGFR expression vector was attempted. In the present invention, first, a vector with three amino acids of NPG added to the D770_N771 site with the highest frequency was used, and Ba/F3 cell line was used for expression of these genes.
When the oncogenic mutant EGFR is expressed, dependence on the mutant EGFR for cell growth and apoptosis occurs without IL-3. Therefore, substances that show effective inhibition of mutant EGFR suppress cell growth and induce apoptosis, so the anticancer effect of cells was analyzed through MTT assay.
1×10^4 cells of the previously constructed stable cells were put into a 96 well plate and incubated overnight, and then the compound of Example was dose dependently treated. After 72 hours, MTT reagent was added, and after 3 hours stop buffer (10% SDS) was added. After 24 hours of incubation, the results were analyzed by reading at 595 nm. […] As a control drug, Mobocertinib was used.

Chain of EXON 20 Insertion(NPG) Ba/F3 Cell (P00533 with tags, fused parts or gaps INS772GNP): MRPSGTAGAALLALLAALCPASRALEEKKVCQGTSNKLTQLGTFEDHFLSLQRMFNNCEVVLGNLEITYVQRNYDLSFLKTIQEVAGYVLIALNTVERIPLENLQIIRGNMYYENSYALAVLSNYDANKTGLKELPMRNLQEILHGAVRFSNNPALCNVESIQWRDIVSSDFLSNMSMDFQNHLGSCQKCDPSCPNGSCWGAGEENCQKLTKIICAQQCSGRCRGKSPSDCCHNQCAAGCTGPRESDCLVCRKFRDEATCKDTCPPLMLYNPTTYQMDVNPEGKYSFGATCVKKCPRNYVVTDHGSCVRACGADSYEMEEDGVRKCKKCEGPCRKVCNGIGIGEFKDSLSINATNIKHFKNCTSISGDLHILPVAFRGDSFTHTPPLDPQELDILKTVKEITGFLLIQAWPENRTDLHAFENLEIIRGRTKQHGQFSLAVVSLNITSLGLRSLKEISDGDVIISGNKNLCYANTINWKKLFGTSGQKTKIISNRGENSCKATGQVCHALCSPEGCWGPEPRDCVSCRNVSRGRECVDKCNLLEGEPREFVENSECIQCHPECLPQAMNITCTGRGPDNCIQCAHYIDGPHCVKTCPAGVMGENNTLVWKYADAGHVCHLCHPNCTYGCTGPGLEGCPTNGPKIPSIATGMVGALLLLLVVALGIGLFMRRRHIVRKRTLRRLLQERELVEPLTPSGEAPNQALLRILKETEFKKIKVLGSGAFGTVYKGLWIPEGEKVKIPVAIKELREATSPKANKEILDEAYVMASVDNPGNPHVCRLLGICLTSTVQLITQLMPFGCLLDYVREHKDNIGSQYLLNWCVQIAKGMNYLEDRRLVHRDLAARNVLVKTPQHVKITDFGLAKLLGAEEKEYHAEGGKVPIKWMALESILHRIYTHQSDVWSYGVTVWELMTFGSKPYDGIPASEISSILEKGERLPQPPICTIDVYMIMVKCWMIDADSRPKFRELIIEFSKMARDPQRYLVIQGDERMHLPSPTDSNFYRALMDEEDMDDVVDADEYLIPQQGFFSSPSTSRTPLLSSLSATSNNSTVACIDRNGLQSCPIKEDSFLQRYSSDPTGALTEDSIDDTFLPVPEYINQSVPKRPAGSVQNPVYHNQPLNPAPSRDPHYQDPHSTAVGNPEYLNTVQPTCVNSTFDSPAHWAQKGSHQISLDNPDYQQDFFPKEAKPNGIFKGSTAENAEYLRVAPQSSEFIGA

| GI50 [nM] | Compound |
| --- | --- |
| < 25 | C=CC(=O)Nc1cc(Nc2cc(Nc3ccccc3-c3ccn(C)n3)ncn2)c(OC)cc1N(C)CCN(C)C [Example 1, N-(2-((2-(dimethylamino)ethyl)(methyl)amino)-4-methoxy-5-((6-((2-(1-methyl-1H-pyrazol-3-yl)phenyl)amino)pyrimidin-4-yl)amino)phenyl)acrylamide] |
| < 25 | C=CC(=O)Nc1cc(Nc2cc(Nc3ccccc3-n3cccn3)ncn2)c(OC)cc1N(C)CCN(C)C [Example 2, N-(5-((6-((2-(1H-pyrazol-1-yl)phenyl)amino)pyrimidin-4-yl)amino)-2-((2-(dimethylamino)ethyl)(methyl)amino)-4-methoxyphenyl)acrylamide] |
| 25 to 50 | C=CC(=O)Nc1cc(Nc2cc(Nc3ccccc3-c3ccn(C)n3)ncn2)c(OC(C)C)cc1N(C)CCN(C)C [Example 3, N-(2-((2-(dimethylamino)ethyl)(methyl)amino)-4-isopropoxy-5-((6-((2-(1-methyl-1H-pyrazol-3-yl)phenyl)amino)pyrimidin-4-yl)amino)phenyl)acrylamide] |
| 25 to 50 | C=CC(=O)Nc1cc(Nc2cc(Nc3ccccc3-c3ccn(C)n3)ncn2)c(OC)cc1N1CCN(C)CC1 [Example 4, N-(4-methoxy-5-((6-((2-(1-methyl-1H-pyrazol-3-yl)phenyl)amino)pyrimidin-4-yl)amino)-2-(4-methylpiperizin-1-yl)phenyl)acrylamide] |
| 25 to 50 | C=CC(=O)Nc1cc(Nc2cc(Nc3ccccc3-c3ccn(C)n3)ncn2)c(OC)cc1N1CCOCC1 [Example 5, N-(4-methoxy-5-((6-((2-(1-methyl-1H-pyrazol-3-yl)phenyl)amino)pyrimidin-4-yl)amino)-2-morpholinophenyl)acrylamide] |
| 25 to 50 | C=CC(=O)Nc1cc(Nc2cc(Nc3ccccc3-c3ccn(C)n3)ncn2)c(OC)cc1N1CC[C@H](N(C)C)C1 [Example 6, (S)-N-(2-(3-(dimethylamino)pyrrolidin-1-yl)-4-methoxy-5-((6-((2-(1-methyl-1H-pyrazol-3-yl)phenyl)amino)pyrimidin-4-yl)amino)phenyl)acrylamide] |
| 25 to 50 | C=CC(=O)Nc1cc(Nc2cc(Nc3ccccc3-c3ccn(C)n3)ncn2)c(OC)cc1N1CC[C@@H](N(C)C)C1 [Example 7, (R)-N-(2-(3-(dimethylamino)pyrrolidin-1-yl)-4-methoxy-5-((6-((2-(1-methyl-1H-pyrazol-3-yl)phenyl)amino)pyrimidin-4-yl)amino)phenyl)acrylamide] |
| 25 to 50 | C=CC(=O)Nc1cc(Nc2cc(Nc3ccccc3-c3ccn(C)n3)ncn2)c(OC)cc1N(C)[C@@H]1CCN(C)C1 [Example 8, (R)-N-(4-methoxy-2-(methyl(1-methylpyrrolidin-3-yl)amino)-5-((6-((2-(1-methyl-1H-pyrazol-3-yl)phenyl)amino)pyrimidin-4-yl)amino)phenyl)acrylamide] |
| 25 to 50 | C=CC(=O)Nc1cc(Nc2cc(Nc3ccccc3-c3ccn(C)n3)ncn2)c(OC)cc1N(C)[C@H]1CCN(C)C1 [Example 9, (S)-N-(4-methoxy-2-(methyl(1-methylpyrrolidin-3-yl)amino)-5-((6-((2-(1-methyl-1H-pyrazol-3-yl)phenyl)amino)pyrimidin-4-yl)amino)phenyl)acrylamide] |
| < 25 | C=CC(=O)Nc1cc(Nc2cc(Nc3ccccc3-c3ccn(C)n3)ncn2)c(OCC(F)(F)F)cc1N(C)CCN(C)C [Example 10, N-(2-((2-(diamethylamino)ethyl)(methyl)amino)-5-((6-((2-(1-methyl-1H-pyrazol-3-yl)phenyl)amino)pyrimidin-4-yl)amino)-4-(2,2,2-trifluoroethoxy)phenyl)acrylamide] |
| 25 to 50 | C=CC(=O)Nc1cc(Nc2cc(Nc3ccccc3-c3ccn(C)n3)ncn2)c(OCC)cc1N(C)CCN(C)C [Example 11] |
| 25 to 50 | C=CC(=O)Nc1cc(Nc2cc(Nc3ccccc3-c3ccn(C)n3)ncn2)c(OC2CC2)cc1N(C)CCN(C)C [Example 12, N-(4-cyclopropoxy-2-((2-(dimethylamino)ethyl)(methyl)amino)-5-((6-((2-(1-methyl-1H-pyrazol-3-yl)phenyl)amino)pyrimidin-4-yl)amino)phenyl)acrylamide] |
| 25 to 50 | C=CC(=O)Nc1cc(Nc2ncc(C#N)c(Nc3ccccc3-c3ccn(C)n3)n2)c(OC)cc1N(C)CCN(C)C [Example 13, N-(5-((5-cyano-4-((2-(1-methyl-1H-pyrazol-3-yl)phenyl)amino)pyrimidin-2-yl)amino)-2-((2-(dimethylamino)ethyl)(methyl)amino)-4-methoxyphenyl)acrylamide] |
| 25 to 50 | C=CC(=O)Nc1cc(Nc2ncc(C)c(Nc3ccccc3-n3cccn3)n2)c(OC)cc1N(C)CCN(C)C [Example 14, N-(5-((4-((2-(1H-pyrazol-1-yl)phenyl)amino)-5-methylpyrimidin-2-yl)amino)-2-((2-(dimethylamino)ethyl)(methyl)amino)-4-methoxyphenyl)acrylamide] |
| 25 to 50 | C=CC(=O)Nc1cc(Nc2ncc(C(F)(F)F)c(Nc3ccccc3-c3ccn(C)n3)n2)c(OC)cc1N(C)CCN(C)C [Example 15, N-(2-((2-(dimethylamino)ethyl)(methyl)amino)-4-methoxy-5-((4-((2-(1-methyl-1H-pyrazol-3-yl)phenyl)amino)-5-(trifluoromethyl)pyrimidin-2-yl)amino)phenyl)acrylamide] |
| < 25 | C=CC(=O)Nc1cc(Nc2ncc(C(=O)OC(C)C)c(Nc3ccccc3-c3ccn(C)n3)n2)c(OC)cc1N(C)CCN(C)C [Example 16, Isopropyl 2-((5-acrylamido-4-((2-(dimethylamino)ethyl)(methyl)amino)-2-methoxyphenyl)amino)-4-((2-(1-methyl-1H-pyrazol-3-yl)phenyl)amino)pyrimidin-5-carboxylate] |
| < 25 | C=CC(=O)Nc1cc(Nc2ncc(C(=O)OC(C)C)c(Nc3ccccc3-n3cccn3)n2)c(OC)cc1N(C)CCN(C)C [Example 17, Isopropyl 4-((2-(1H-pyrazol-1-yl)phenyl)amino)-2-((5-acrylamido-4-((2-(dimethylamino)ethyl)(methyl)amino)-2-methoxyphenyl)amino)pyrimidin-5-carboxylate] |
| 25 to 50 | C=CC(=O)Nc1cc(Nc2ncc(C(=O)OC)c(Nc3ccccc3-c3ccn(C)n3)n2)c(OC)cc1N(C)CCN(C)C [Example 18, methyl 2-((5-acrylamido-4-((2-(dimethylamino)ethyl)(methyl)amino)-2-methoxyphenyl)amino)-4-((2-(1-methyl-1H-pyrazol-3-yl)phenyl)amino)pyrimidin-5-carboxylate] |
| 25 to 50 | C=CC(=O)Nc1cc(Nc2ncc(C(=O)OC)c(Nc3ccccc3-n3cccn3)n2)c(OC)cc1N(C)CCN(C)C [Example 19, methyl 4-((2-(1H-pyrazol-1-yl)phenyl)amino)-2-((5-acrylamido-4-((2-(dimethylamino)ethyl)(methyl)amino)-2-methoxyphenyl)amino)pyrimidin-5-carboxylate] |
| 25 to 50 | C=CC(=O)Nc1cc(Nc2ncc(C(=O)OCC)c(Nc3ccccc3-c3ccn(C)n3)n2)c(OC)cc1N(C)CCN(C)C [Example 20, ethyl 2-((5-acrylamido-4-((2-(dimethylamino)ethyl)(methyl)amino)-2-methoxyphenyl)amino)-4-((2-(1-methyl-1H-pyrazol-3-yl)phenyl)amino)pyrimidin-5-carboxylate] |
